Literature values, collected in US9592004B2, “Methods and systems for managing epilepsy and other neurological disorders” (CYBERONICS, INC., priority 2005, dated 2017).
Where two headings read alike, the source gives them in different places.

What was measured:
seizure = settings: intranasal
[1] = not given; remark: listed apart in the source
[2] = system: GABA/benzodiazepine receptor ionophore complex; settings: in vitro; does not produce changes in chloride flux
sodium channels = settings: in vitro
T-type Ca^2+ currents = settings: in vitro
[3] = system: cultured mouse spinal cord neurons; settings: 10-30 μg/mL
rat hippocampal slices = settings: 10-30 μg/mL
[4] = system: dopaminergic and serotonergic neurotransmission; settings: in vivo microdialysis
partial seizures = settings: controlled trials, adjunctive therapy, adults, oral
[5] = long term therapy, per daily dose of 1 mg/kg of primidone

## Cc1ncc2n1-c1ccc(Cl)cc1C(c1ccccc1F)=NC2 [Midazolam, midazolam]
seizure
  time to terminate a seizure: 30 s

## O=C1NC(=O)C(c2ccccc2)(c2ccccc2)N1 [Phenytoin, diphenylhydantoin]
other
  concentration at which toxic effects such as nystagmus develop: around 20 μg/ml
seizures
  concentration giving chronic control of seizures: above 10 μg/ml

## CCC1(C)CC(=O)NC1=O (stereo not shown) [ethosuximide, Ethosuximide]
[1]; long-term therapy, per daily dose of 1 mg/kg
  average plasma concentration: about 2 μg/ml

## CCC1(c2ccccc2)C(=O)NC(=O)NC1=O [phenobarbital, Phenobarbital]
[1]; long term therapy in adults, per daily dose of 1 mg/kg
  average plasma concentration: about 10 μg/ml
[1]; [5]
  average plasma concentration: about 2 μg/ml

## CCC1(c2ccccc2)C(=O)NCNC1=O [primidone, Primidone]
[1]; [5]
  average plasma concentration: about 1 μg/ml

## NS(=O)(=O)Cc1noc2ccccc12 [zonisamide, 1,2-benzisoxazole-3-methanesulfonamide]
[2]
  binding to GABA/benzodiazepine receptor ionophore complex: binds to the GABA/benzodiazepine receptor ionophore complex in an allosteric fashion
Carbonic anhydrase
  carbonic anhydrase inhibiting activity: weak carbonic anhydrase inhibiting activity
Sodium channels
  effect on sodium channels: blocks sodium channels
T-type Ca^2+ currents
  effect on T-type Ca2+ currents: reduces voltage-dependent, transient inward currents
[3]
  effect on synaptically-driven electrical activity: suppresses synaptically-driven electrical activity
[3]; cultured mouse spinal cord neurons
  effect on postsynaptic GABA or glutamate responses: without affecting postsynaptic GABA or glutamate responses
Rat hippocampal slices
  effect on neuronal or glial uptake of [3H]-GABA: without affecting
[4]
  effect on dopaminergic and serotonergic neurotransmission: facilitates both dopaminergic and serotonergic neurotransmission
Partial seizures
  effective doses: 100 to 600 mg/day
